“Also recorded” adds a separate entry of the source.
Key:
[1] = test system: IM-9 tumor cells (a human multiple myeloma cell line); assay: IM-9 multiple myeloma subcutaneous xenograft model; format: in vivo, SCID mice
Description: SCID mice were inoculated subcutaneously with IM-9 tumor cells (a human multiple myeloma cell line expressing both CD40 and CD20) in 50% […]™ at 5×10^6 cells per mouse. […] Alternatively, bortezomib dosing at 1 mg/kg intravenously occurred on days 5, 8, 12, and 15 after tumor implantation. […] Antibody dosing occurred on days 8, 14, and 21 post tumor implantation, while bortezomib dosing occurred on days 8, 11, 14 and 18 post tumor implantation. […] Data were analyzed using the log-rank test.

B-CLL cells = assay: Western blot of p-Akt, p-p38 MAPK, p-IKK α/β, p-ERK in B-CLL cells; format: cell-based, human
Description: To detect p38 MAPK, cells were cultured for 3 hr using the previously described conditions, with rhsCD40L being added in the last 20 min of incubation. Cells were processed as described above for data shown in FIG. 25. mAbs specific to human p-Akt and p-p38 MAPK were used to probe the resultant membranes, which were re-probed for AKT and p38 total protein, respectively.
Resultant membranes were probed using mAbs specific to human p-IKK α/β and p-ERK.

normal B cells [2] = assay: CD40L-induced production of VEGF in normal B cells; format: cell-based, human
Excerpt: In another experiment, CD40L-induced production of VEGF in normal B cells and CLL cells obtained from patients with CLL is examined in a manner similar to that described above.

CLL cells = assay: CD40L-induced cytokine secretion by CLL cells (Meso Scale Discovery); format: cell-based, human; settings: CLL #1; 10 μg/ml, 24 hours; preliminary, n=1
Description: (§1) Cells (1×10^5 cells per well) were cultured in a 96-well plate in the presence or absence of CD40L (CD40 transfected, formaldehyde fixed CHO cells, 2×10^5 per well). […] Production of hIL-6, hIL-8, hIL-10, hTNF-α, hGM-CSF, hIL-1b, hIL-12p70, MCP-1, and MIP-1β was measured by Meso Scale Discovery® multi-array system (Meso Scale Discovery, Gaithersburg, Md.).

cell-surface CD40 = cell-surface CD40 (Homo sapiens, UniProt P25942); assay: Flow cytometric CD40-ligand binding blockade and displacement; settings: flow cytometric assays / FACS
Sequence of cell-surface CD40 (P25942 21-277): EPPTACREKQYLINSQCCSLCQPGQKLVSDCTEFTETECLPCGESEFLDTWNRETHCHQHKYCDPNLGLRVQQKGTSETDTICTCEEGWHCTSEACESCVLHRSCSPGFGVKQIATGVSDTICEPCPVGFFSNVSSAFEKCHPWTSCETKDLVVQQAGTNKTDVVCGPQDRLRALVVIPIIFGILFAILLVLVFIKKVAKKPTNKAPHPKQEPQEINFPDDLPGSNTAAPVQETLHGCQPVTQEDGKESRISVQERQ
Excerpt: (§2) 2, 2000, and PCT International Application No. PCT/US01/30857, also titled “Human Anti-CD40 Antibodies,” filed Oct. 2, 2001, both of which are herein incorporated by reference in their entirety.
(§3) 4, 2003, Nov. 26, 2003, and Apr. 27, 2004, and assigned U.S. Patent Application Nos. 60/517,337, 60/525,579, and 60/565,710, respectively, and International Patent Application No. PCT/US2004/037152, also entitled “Antagonist, Anti-CD40 Monoclonal Antibodies and Methods for Their Use,” filed Nov. 4, 2004; the contents of each of which are herein incorporated by reference in their entirety.

normal B cells [3] = assay: CD40L-induced cytokine secretion from normal B cells (Meso Scale Discovery); format: cell-based, human; settings: 10 μg/ml, 24 hours
Description: as §1

primary B-CLL cells = assay: Western blot of cPARP, Mcl-1, Bcl-xl in primary B-CLL cells; format: cell-based, human; settings: 10 μg/ml with rhsCD40L
Description: Whole cell lysates were prepared in RIPA lysis buffer (1% Nonidet P-40, 0.5% sodium deoxycholate, 0.1% Sodium dodecylsulfate in 1× phosphate buffered saline, pH 7.2). 10-20 μg of protein per sample were resolved on a 10% Tris-Glycine gel and transferred to nitrocellulose membranes, and membranes were probed using mAbs specific to human cPARP, Mcl-1, or Bcl-xl. The membranes were stripped and re-probed for β-actin and developed using ECL.

KMS-12-BM tumor = assay: Human KMS-12-BM subcutaneous xenograft model; format: in vivo, SCID mice; settings: 42 days post cell implantation
Description: Female SCID mice were treated with 3Gy irradiation one day prior to implantation of tumor cells. On the day of implantation, cells were prepared at a concentration of 5×10^7 cells/ml in 50% matrigel. Cells were implanted subcutaneously over the right flank at 5×10^6 cells/100 μl/mouse. […] Antibodies were administered intraperitoneally once a week for 4 weeks. Bortezomib was administered intravenously twice a week for two weeks.

[4] = test system: B cells from normal human subjects; assay: In vitro CD40 ligand-mediated proliferation of normal B cells; format: cell-based
Excerpt: as §2, §3

[5] = test system: B-CLL cells from patients; assay: RT-PCR timecourse of transcripts in B-CLL cells; format: cell-based, human; settings: 10 μg/mL with sCD40L, vs IgG1
Description: Cell pellets were collected at 0 hr (no CD40L), 1, 4 and 24 hr and lysed simultaneously at the end. RNA was isolated using the RNeasy kit, and cDNA was prepared using the ABI RT kit. Two-step RT-PCR was done with the genes shown in two separate reactions, based on TM of each set of oligos.

[6] = test system: primary cancer cells from NHL patients; assay: ADCC against primary cancer cells; format: cell-based, human; settings: in vitro
Excerpt: as §3

[7] = 3 hr culture, rhsCD40L in the last 20 min

Question: For “CHIR-12.12: fully human anti-CD40 monoclonal antibody of the IgG1 isotype from hybridoma cell line 153.8E2.D10.D6.12.12 (ATCC PTA-5543)”, which “Ki67+ proliferating cells (histology)” value ([1]; 5 days after a single dose) is on record?
Answer: significantly reduced the number of Ki67^+ proliferating cells

Question: And the “cleaved caspase 3 and cleaved PARP (histology)” value ([1]; 5 days after a single dose)?
Answer: increased the level of cleaved caspase 3 and cleaved PARP

Question: What about the tumor growth ([1]; first study, CHIR-12.12 1 and 10 mg/kg i.p. days 5, 12, 18, bortezomib 1 mg/kg i.v. days 5, 8, 12, 15) of the same substance?
Answer: inhibited tumor growth at 15, 18, and 21 days post tumor implantation

Question: What about the “tumor volume, CHIR-12.12 in combination with bortezomib” value ([1]; second study, CHIR-12.12 1 mg/kg i.p. plus bortezomib 1 mg/kg i.v.) of the same substance?
Answer: the efficacy observed was additive; also recorded: a tumor volume reduction was observed on days 13, 16, 20, 23, and 26

Question: And the “CD40L-induced phosphorylation of IKK α/β and ERK ½” value (B-CLL cells; [7])?
Answer: inhibited the CD40L-induced phosphorylation of IKK α/β and ERK ½

Question: And the “rhsCD40L-enhanced phosphorylation of p38 MAPK” value (B-CLL cells; [7])?
Answer: blocked this effect

Question: And the “CD40L activation of the AKT pathway (p-Akt)” value (B-CLL cells; in a number of samples)?
Answer: blocked this effect

Question: What about the “CD40L-induced production of VEGF” value (normal B cells [2]) of the same substance?
Answer: inhibit CD40L-induced production of VEGF

Question: What about the “inhibition of CD40-ligand-induced MCP-1 secretion” value (CLL cells) of the same substance?
Answer: 34.8 % inhibition

Question: And the “inhibition of CD40-ligand-induced hGM-CSF secretion” value (CLL cells)?
Answer: 86.5 % inhibition

Question: And the “inhibition of CD40-ligand-induced hIL-8 secretion” value (CLL cells)?
Answer: 91.0 % inhibition

Question: What about the “inhibition of CD40-ligand-induced hIL-10 secretion” value (CLL cells) of the same substance?
Answer: 99.6 % inhibition

Question: And the “inhibition of CD40-ligand-induced hTNF-α secretion” value (CLL cells)?
Answer: 89.6 % inhibition

Question: And the “displacement of pre-bound CD40-ligand” value (cell-surface CD40)?
Answer: displace the pre-bound CD40-ligand; also recorded: can compete off CD40-ligand pre-bound to cell surface CD40

Question: And the “prevention of CD40-ligand binding to cell-surface CD40” value (cell-surface CD40)?
Answer: prevent the binding of CD40-ligand to cell-surface CD40; also recorded: can prevent CD40-ligand binding

Question: What about the “cytokine production with antibody alone (agonistic activity)” value (normal B cells [3]; absence of CD40L) of the same substance?
Answer: did not produce any of the cytokines above background levels

Question: What about the “inhibition of CD40L-induced MCP-1 secretion” value (normal B cells [3]; Donor 1) of the same substance?
Answer: 55.3 % inhibition

Question: What about the “inhibition of CD40L-induced MIP-1β secretion” value (normal B cells [3]; Donor 1) of the same substance?
Answer: 54.4 % inhibition

Question: And the “inhibition of CD40L-induced hIL-6 secretion” value (normal B cells [3]; Donor 1)?
Answer: 92.2 % inhibition

Question: And the “inhibition of CD40L-induced hIL-8 secretion” value (normal B cells [3]; Donor 1)?
Answer: 98.2 % inhibition

Question: And the “inhibition of CD40L-induced hIL-10 secretion” value (normal B cells [3]; Donor 1)?
Answer: 90.5 % inhibition

Question: And the “inhibition of CD40L-induced hTNF-α secretion” value (normal B cells [3]; Donor 1)?
Answer: 92.8 % inhibition

Question: And the “inhibition of CD40L-induced MIP-1β secretion” value (normal B cells [3]; Donor 2)?
Answer: 92 % inhibition

Question: What about the “inhibition of CD40L-induced hIL-6 secretion” value (normal B cells [3]; Donor 2) of the same substance?
Answer: 99.9 % inhibition

Question: What about the “inhibition of CD40L-induced hIL-8 secretion” value (normal B cells [3]; Donor 2) of the same substance?
Answer: 84.7 % inhibition

Question: What about the “inhibition of CD40L-induced hTNF-α secretion” value (normal B cells [3]; Donor 2) of the same substance?
Answer: 97.4 % inhibition

Question: What about the “inhibition of CD40L-induced MCP-1 secretion” value (normal B cells [3]; Donor 3) of the same substance?
Answer: 25.7 % inhibition

Question: And the “inhibition of CD40L-induced MIP-1β secretion” value (normal B cells [3]; Donor 3)?
Answer: 92.5 % inhibition

Question: What about the “inhibition of CD40L-induced hIL-6 secretion” value (normal B cells [3]; Donor 3) of the same substance?
Answer: 99.3 % inhibition

Question: And the “inhibition of CD40L-induced hIL-8 secretion” value (normal B cells [3]; Donor 3)?
Answer: 99.5 % inhibition

Question: And the “inhibition of CD40L-induced hIL-10 secretion” value (normal B cells [3]; Donor 3)?
Answer: 94.4 % inhibition

Question: And the “inhibition of CD40L-induced hTNF-α secretion” value (normal B cells [3]; Donor 3)?
Answer: 98.5 % inhibition

Question: And the “cPARP levels and Mcl-1 and Bcl-xl expression (Western blot)” value (primary B-CLL cells)?
Answer: blocked the CD40L-mediated decrease of cPARP levels and CD40L-mediated increase of Mcl-1 and Bcl-xl expression

Question: And the tumor volume reduction (KMS-12-BM tumor; 1 mg/kg i.p. once a week for 4 weeks, P>0.05)?
Answer: 32%

Question: What about the tumor volume reduction (KMS-12-BM tumor; 10 mg/kg i.p. once a week for 4 weeks, P<0.05) of the same substance?
Answer: 35%

Question: What about the “effect on proliferation of normal B cells” value [4] of the same substance?
Answer: act as antagonist anti-CD40 antibodies; also recorded: inhibit in vitro CD40 ligand-mediated proliferation of normal B cells

Question: What about the “RNA expression of CD40, CD40L, VEGF, TRAF2 and TRAF3” value ([5]; 1, 4, 24 hr) of the same substance?
Answer: inhibition of RNA expression

Question: And the “RNA expression of IL-6” value [5]?
Answer: no transcriptional changes

Question: And the “RNA expression of TRAF6 and Mcl-1” value [5]?
Answer: minor down-regulation

Question: And the “killing of primary cancer cells by ADCC” value [6]?
Answer: kill primary cancer cells from NHL patients by ADCC

Source: patent US8337851B2, “Methods of monitoring the efficacy of anti-CD40 antibodies in treating a subject for a CD40-expressing cancer” (Novartis AG, priority 2005, dated 2012)
